Paper PMC10969742, “A Phase I Study of the Oral Dual-Acting Pan-PI3K/mTOR Inhibitor Bimiralisib in Patients with Advanced Solid Tumors” (Cancers, 2024)
Where two headings read alike, the source gives them in different places.

Tested on: patients with advanced solid tumors
Type: in vivo
Description: This was a Phase 1, open-label, multi-center, non-randomized, dose escalation study evaluating DLTs, tolerability, PK, and preliminary efficacy of bimiralisib in the treatment of patients with advanced solid tumors for which no standard curative or life-prolonging therapy is available. This study was conducted in the US (MD Anderson Cancer Center, Houston; Mayo Clinic Rochester; Roswell Park Comprehensive Cancer Center, Buffalo; University Hospitals of Cleveland), Spain (Vall Hebron University Hospital), Switzerland (Basel University Hospital), and UK (University College London Hospitals NHS Trust and Oxford Universities NHS Trust).
The primary objective of the study was to determine the MTD of bimiralisib administered according to three different dosing schedules. Bimiralisib was formulated as 20 mg and 80 mg capsules for oral administration. The first dosing schedule to be evaluated was continuous (once daily) dosing over a 21-day cycle. […] Patients enrolled in the continuous schedule and intermittent schedule A received a single lead-in dose, administered on […] prior to the start of the first 21-day treatment cycle, to characterize single-dose pharmacokinetics. Based on the previous first-in-human trial with bimiralisib, together with the expected toxicity profile of PI3K/mTOR inhibitors, the starting dose (dose-level 1) of bimiralisib in Study PQR309-003 was set at 80 mg daily.
Safety was monitored by physical examination, vital signs, weight, electrocardiogram, ECOG performance status, laboratory evaluations (including glucose monitoring), and patient self-reported mood questionnaires, as well as AEs. All AEs were coded with NCI Common Terminology Criteria for Adverse Events (CTCAE) v4.03 [27]. The MTD was defined as the maximum dose level at which ≤1/6 patients have DLTs. A DLT was defined by the occurrence of grade 3 or 4 AE that is possibly, probably, or definitely related to bimiralisib within the first 21 days of treatment. Bimiralisib treatment was interrupted if patients experienced any DLTs. If the patient derived benefit from the treatment as determined by the investigator, treatment could be resumed at a lower dose in agreement with the study sponsor.
Patients were discontinued from trial if they had evidence of clinical, symptomatic, or radiographic disease progression or relapse, unacceptable drug related AEs, non-compliance to the protocol, voluntary withdrawal, or pregnancy. Treatment compliance was established with patient diaries and records of medication used and dosages administered.
Descriptive statistics were used to present the data. Categorical data were summarized in contingency tables presenting frequencies and percentages. Continuous data were summarized using the number of non-missing values (n), mean, standard deviation (SD), median, Q1, Q3, minimum and maximum values, as appropriate. Data were analyzed using SAS. No tests of significance were planned to compare study treatment groups on baseline data. The efficacy and safety analysis set comprised all patients who receive ≥1 dose of bimiralisib.

Question: Which results are given for `Nc1cc(C(F)(F)F)c(-c2nc(N3CCOCC3)nc(N3CCOCC3)n2)cn1` [bimiralisib, 5-(4,6-Dimorpholino-1,3,5-triazin-2-yl)-4-(trifluoromethyl)pyridin-2-amine]?
Answer: Any TEAE (Continuous (n = 21)): 21 (100) n (%); Any drug-related AE (Continuous (n = 21)): 21 (100) n (%); Any drug-related grade ≥ 3 AE (Continuous (n = 21)): 11 (52.4) n (%); Any drug-related serious AE (Continuous (n = 21)): 2 (10) n (%); Any grade ≥ 3 TEAE (Continuous (n = 21)): 17 (81) n (%); Any serious AE (Continuous (n = 21)): 9 (43) n (%); Common TEAE: ALT elevation (Continuous (n = 21)): 1 (4.76) n (%); Common TEAE: Abdominal pain (Continuous (n = 21)): 1 (4.76) n (%); Common TEAE: Anemia (Continuous (n = 21)): 0 (0) n (%); Common TEAE: Anxiety (Continuous (n = 21)): 5 (23.8) n (%); Common TEAE: Ascites (Continuous (n = 21)): 0 (0) n (%); Common TEAE: Asthenia (Continuous (n = 21)): 6 (28.6) n (%); Common TEAE: Back pain (Continuous (n = 21)): 4 (19.1) n (%); Common TEAE: Cachexia (Continuous (n = 21)): 4 (19.1) n (%); Common TEAE: Cough (Continuous (n = 21)): 2 (9.5) n (%); Common TEAE: Decreased appetite (Continuous (n = 21)): 11 (52.4) n (%); Common TEAE: Dehydration (Continuous (n = 21)): 6 (28.6) n (%); Common TEAE: Depression (Continuous (n = 21)): 5 (23.8) n (%); Common TEAE: Diarrhea (Continuous (n = 21)): 10 (47.6) n (%); Common TEAE: Disturbance attention (Continuous (n = 21)): 11 (52.4) n (%); Common TEAE: Dry Mouth (Continuous (n = 21)): 10 (47.6) n (%); Common TEAE: Dry skin (Continuous (n = 21)): 7 (33.3) n (%); Common TEAE: Dysgeusia (Continuous (n = 21)): 4 (19.1) n (%); Common TEAE: Dyspepsia (Continuous (n = 21)): 1 (4.76) n (%); Common TEAE: Dyspnea (Continuous (n = 21)): 4 (19.1) n (%); Common TEAE: Fatigue (Continuous (n = 21)): 13 (61.9) n (%); Common TEAE: Headache (Continuous (n = 21)): 0 (0) n (%); Common TEAE: Hyperglycemia (Continuous (n = 21)): 16 (76.2) n (%); Common TEAE: Hyperinsulinemia (Continuous (n = 21)): 7 (33.3) n (%); Common TEAE: Hyperkalemia (Continuous (n = 21)): 0 (0) n (%); Common TEAE: Hyperphosphatasemia (Continuous (n = 21)): 1 (4.76) n (%); Common TEAE: Hypokalemia (Continuous (n = 21)): 6 (28.6) n (%); Common TEAE: Irritability (Continuous (n = 21)): 0 (0) n (%); Common TEAE: Malaise (Continuous (n = 21)): 4 (19.1) n (%); Common TEAE: Mucosal Inflammation (Continuous (n = 21)): 0 (0) n (%); Common TEAE: Neck pain (Continuous (n = 21)): 0 (0) n (%); Common TEAE: Pruritus (Continuous (n = 21)): 6 (28.6) n (%); Common TEAE: Rash (Continuous (n = 21)): 4 (19.1) n (%); Common TEAE: Tachycardia (Continuous (n = 21)): 4 (19.1) n (%); Common TEAE: Upper respiratory tract infection (Continuous (n = 21)): 1 (4.76) n (%); Common TEAE: Vomiting (Continuous (n = 21)): 10 (47.6) n (%); Common TEAE: Weight decrease (Continuous (n = 21)): 11 (52.4) n (%); Grade ≥ 3 TEAE: ALT elevation (Continuous (n = 21)): 1 (4.8) n (%); Grade ≥ 3 TEAE: Dehydration (Continuous (n = 21)): 4 (19) n (%); Grade ≥ 3 TEAE: Fatigue (Continuous (n = 21)): 7 (33.3) n (%); Grade ≥ 3 TEAE: Hyperglycemia (Continuous (n = 21)): 6 (28.6) n (%); Patients discontinuing study due to AE (Continuous (n = 21)): 5 (24.0%) n (%); Study discontinuation due to AE: Dehydration (Continuous (n = 21)): 2 (9.5%) n (%); Study discontinuation due to AE: Ejection Fraction decreased (Continuous (n = 21)): 1 (4.8%) n (%); Study discontinuation due to AE: Fatigue (Continuous (n = 21)): 3 (14.3%) n (%); Study discontinuation due to AE: Tumor pain (Continuous (n = 21)): 1 (4.8%) n (%); Treatment-related death (Continuous (n = 21)): 0 (0) n (%); Common TEAE: Upper respiratory tract infection (Intermittent A, n = 25): 3 (12) n (%); Study discontinuation due to AE: Urinary Tract Infection (Intermittent A, n = 25): 1 (4.0%) n (%); Treatment-related death (Intermittent A, n = 25): 0 (0) n (%); Common TEAE: Upper respiratory tract infection (Intermittent B, n = 24): 1 (4.2) n (%); Treatment-related death (Intermittent B, n = 24): 0 (0) n (%); Common TEAE: Upper respiratory tract infection (Total n = 70): 5 (7.1) n (%); Study discontinuation due to AE: Urinary Tract Infection (Total n = 70): 1 (1.4%) n (%); Treatment-related death (Total n = 70): 0 (0) n (%); Patients who died during the study (all patients, 19 patients): 27.1%; Grade > 3 TEAE fatigue, frequency (continuous dosing): 33.3%; Grade > 3 TEAE hyperglycemia, frequency (continuous dosing): 28.6%; Patients experiencing Grade > 3 TEAEs (continuous dosing): 81%; Patients who discontinued due to treatment-related fatigue (continuous dosing): 2 patients; Patients who discontinued the study due to AEs (continuous dosing): 5 patients; Treatment-emergent AE hyperglycemia, frequency (continuous schedule): 76.2%; Dose reduction due to TEAEs (continuous schedule, n = 2): 10%; Dose interruption due to TEAEs (continuous schedule, n = 11): 52%; Discontinued study treatment: AEs (human, in vivo): 12.9%; Grade > 3 TEAE hyperglycemia, frequency (human, in vivo): 12.5%; Patients experiencing one or more TEAEs (human, in vivo): 99%; Patients reporting one or more serious adverse events (SAEs) (human, in vivo): 40%; Patients who discontinued due to treatment-related fatigue (human, in vivo): 1 patients; Patients who discontinued the study due to AEs (human, in vivo): 3 patients; Patients with TEAEs related to the study drug (human, in vivo): 91%; SAEs considered related to study drug (human, in vivo): 6%; Study discontinuation due to AE: Dehydration (human, in vivo): 2 (2.8%) n (%); Study discontinuation due to AE: Ejection Fraction decreased (human, in vivo): 1 (1.4%) n (%); Study discontinuation due to AE: Tumor pain (human, in vivo): 1 (1.4%) n (%); Treatment-emergent AE nausea, frequency (human, in vivo): 56–62.5%; Patients who discontinued due to AEs considered to be treatment-related (in vivo): five; SAEs considered related to study drug, number (in vivo): two; Grade > 3 TEAE fatigue, frequency (intermittent schedule A): 0%; Grade > 3 TEAE hyperglycemia, frequency (intermittent schedule A): 12%; Patients experiencing Grade > 3 TEAEs (intermittent schedule A): 56%; Patients who discontinued the study due to AEs (intermittent schedule A): 1 patients; SAEs considered related to study drug, number (intermittent schedule A): zero; Dose reduction due to TEAEs (intermittent schedule A, n = 0): 0%; Dose interruption due to TEAEs (intermittent schedule A, n = 9): 36%; Grade > 3 TEAE fatigue, frequency (intermittent schedule B): 8.3%; SAEs considered related to study drug, number (intermittent schedule B (diarrhea and hyperglycemia)): two; Dose reduction due to TEAEs (intermittent schedule B, n = 1): 4%; Dose interruption due to TEAEs (intermittent schedule B, n = 9): 38%; Deaths due to disease progression (of 19 deaths during the study): 16 patients; Deaths due to other reasons unrelated to bimiralisib (vessel rupture, sepsis, new small cell carcinoma) (of 19 deaths during the study): 3 patients
